Results as given in PubChem BioAssay (NCI).
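Step 1: Grow cells in 96-well plates. Step 2: Expose to compound for 48 hours at 5 concentrations. Step 3: Interpolate endpoints linearly; if unreached, use highest concentration. GI50 = concentration required for 50% inhibition of growth. Definition used: TGI = concentration required for complete inhibition of growth.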

system: BT-549 breast; assay: NCI tumour cell line growth inhibition, 48 h

Compound | GI50 [µM] | TGI [µM]
COC(=O)/C=C/c1cc(OC(C)=O)c2c(c1)[C@@H](C(=O)OC)[C@H](c1ccc(OC(C)=O)c(OC(C)=O)c1)O2 | 0.219 | 32.9
Nc1nc2[nH]cc(CCc3ccc(C(=O)N[C@@H](CCC(=O)O)C(=O)O)cc3)c2c(=O)[nH]1 | > 71.7 | > 100
Fc1cc(-c2nnc3n2N=C(c2ccc(Cl)cc2)CS3)c(Cl)cc1Cl | 3.27 | 8.66
CN1CCN(C(=O)COc2ccc(C34CC5CC(CC(C5)C3)C4)cc2)CC1 | 12.2 | 26.5
COc1ccccc1NC(=O)c1cc2cc(Br)ccc2cc1O | 2.15 | 6.12
CC(=O)OCc1ccc2c(c1)C(O)NC(=O)O2 (stereo unspecified) | – | > 100
O=C(Nc1nn2c(-c3cc(C(F)(F)F)cc(C(F)(F)F)c3)nnc2s1)C1CCCC1 | 0.796 | > 74.7
COC(=O)[C@]12CC[C@@H](C)[C@H](C)[C@@H]1C1=CC[C@@H]3[C@@]4(C)C[C@@H](O)[C@H](O)[C@@](C)(CO)[C@@H]4[C@H](O)C[C@@]3(C)[C@]1(C)CC2 | 12.6 | 26.4
COCCn1cc(-c2nc(-c3cc4cccnc4[nH]3)cs2)c2cc(OC)ccc21 | 1.8 | 7.66
NCCNCCNCCN | > 100 | > 100

system: DU-145 prostate; assay: NCI tumour cell line growth inhibition, 48 h

Compound | GI50 [µM] | TGI [µM]
COC(=O)/C=C/c1cc(OC(C)=O)c2c(c1)[C@@H](C(=O)OC)[C@H](c1ccc(OC(C)=O)c(OC(C)=O)c1)O2 | 0.0636 | –
Nc1nc2[nH]cc(CCc3ccc(C(=O)N[C@@H](CCC(=O)O)C(=O)O)cc3)c2c(=O)[nH]1 | – | > 100
Fc1cc(-c2nnc3n2N=C(c2ccc(Cl)cc2)CS3)c(Cl)cc1Cl | 6.47 | 17.1
CN1CCN(C(=O)COc2ccc(C34CC5CC(CC(C5)C3)C4)cc2)CC1 | 19 | 55.7
COc1ccccc1NC(=O)c1cc2cc(Br)ccc2cc1O | 3.28 | 14
CC(=O)OCc1ccc2c(c1)C(O)NC(=O)O2 (stereo unspecified) | – | > 100
O=C(Nc1nn2c(-c3cc(C(F)(F)F)cc(C(F)(F)F)c3)nnc2s1)C1CCCC1 | 1.95 | > 100
COC(=O)[C@]12CC[C@@H](C)[C@H](C)[C@@H]1C1=CC[C@@H]3[C@@]4(C)C[C@@H](O)[C@H](O)[C@@](C)(CO)[C@@H]4[C@H](O)C[C@@]3(C)[C@]1(C)CC2 | 16.4 | 31.8
COCCn1cc(-c2nc(-c3cc4cccnc4[nH]3)cs2)c2cc(OC)ccc21 | 3.96 | 56.1
NCCNCCNCCN | > 100 | > 100

system: EKVX NSCLC; assay: NCI tumour cell line growth inhibition, 48 h

Compound | GI50 [µM] | TGI [µM]
COC(=O)/C=C/c1cc(OC(C)=O)c2c(c1)[C@@H](C(=O)OC)[C@H](c1ccc(OC(C)=O)c(OC(C)=O)c1)O2 | 2.38 | > 94.3
Nc1nc2[nH]cc(CCc3ccc(C(=O)N[C@@H](CCC(=O)O)C(=O)O)cc3)c2c(=O)[nH]1 | – | > 100
Fc1cc(-c2nnc3n2N=C(c2ccc(Cl)cc2)CS3)c(Cl)cc1Cl | 23.5 | 48.1
CN1CCN(C(=O)COc2ccc(C34CC5CC(CC(C5)C3)C4)cc2)CC1 | 24.6 | > 100
COc1ccccc1NC(=O)c1cc2cc(Br)ccc2cc1O | 1.77 | 8.1
CC(=O)OCc1ccc2c(c1)C(O)NC(=O)O2 (stereo unspecified) | – | > 100
O=C(Nc1nn2c(-c3cc(C(F)(F)F)cc(C(F)(F)F)c3)nnc2s1)C1CCCC1 | 0.366 | > 25.2
COC(=O)[C@]12CC[C@@H](C)[C@H](C)[C@@H]1C1=CC[C@@H]3[C@@]4(C)C[C@@H](O)[C@H](O)[C@@](C)(CO)[C@@H]4[C@H](O)C[C@@]3(C)[C@]1(C)CC2 | 13.4 | 31.4
COCCn1cc(-c2nc(-c3cc4cccnc4[nH]3)cs2)c2cc(OC)ccc21 | 0.0827 | 4.43
NCCNCCNCCN | > 100 | > 100

system: HCT-15 colon; assay: NCI tumour cell line growth inhibition, 48 h

Compound | GI50 [µM] | TGI [µM]
COC(=O)/C=C/c1cc(OC(C)=O)c2c(c1)[C@@H](C(=O)OC)[C@H](c1ccc(OC(C)=O)c(OC(C)=O)c1)O2 | 0.0421 | > 100
Nc1nc2[nH]cc(CCc3ccc(C(=O)N[C@@H](CCC(=O)O)C(=O)O)cc3)c2c(=O)[nH]1 | – | > 100
Fc1cc(-c2nnc3n2N=C(c2ccc(Cl)cc2)CS3)c(Cl)cc1Cl | 4.82 | 13.8
CN1CCN(C(=O)COc2ccc(C34CC5CC(CC(C5)C3)C4)cc2)CC1 | 7.33 | 21
COc1ccccc1NC(=O)c1cc2cc(Br)ccc2cc1O | 2.37 | 8.54
CC(=O)OCc1ccc2c(c1)C(O)NC(=O)O2 (stereo unspecified) | – | > 100
O=C(Nc1nn2c(-c3cc(C(F)(F)F)cc(C(F)(F)F)c3)nnc2s1)C1CCCC1 | 0.665 | > 100
COC(=O)[C@]12CC[C@@H](C)[C@H](C)[C@@H]1C1=CC[C@@H]3[C@@]4(C)C[C@@H](O)[C@H](O)[C@@](C)(CO)[C@@H]4[C@H](O)C[C@@]3(C)[C@]1(C)CC2 | 12.5 | 28.4
COCCn1cc(-c2nc(-c3cc4cccnc4[nH]3)cs2)c2cc(OC)ccc21 | 2.26 | 21.5
NCCNCCNCCN | > 100 | > 100

system: HOP-62 NSCLC; assay: NCI tumour cell line growth inhibition, 48 h

Compound | GI50 [µM] | TGI [µM]
COC(=O)/C=C/c1cc(OC(C)=O)c2c(c1)[C@@H](C(=O)OC)[C@H](c1ccc(OC(C)=O)c(OC(C)=O)c1)O2 | 0.0779 | 63.9
Nc1nc2[nH]cc(CCc3ccc(C(=O)N[C@@H](CCC(=O)O)C(=O)O)cc3)c2c(=O)[nH]1 | 0.724 | > 100
Fc1cc(-c2nnc3n2N=C(c2ccc(Cl)cc2)CS3)c(Cl)cc1Cl | 20.1 | 36.4
CN1CCN(C(=O)COc2ccc(C34CC5CC(CC(C5)C3)C4)cc2)CC1 | 14.5 | 32.5
COc1ccccc1NC(=O)c1cc2cc(Br)ccc2cc1O | 2.38 | 6.86
CC(=O)OCc1ccc2c(c1)C(O)NC(=O)O2 (stereo unspecified) | – | > 100
O=C(Nc1nn2c(-c3cc(C(F)(F)F)cc(C(F)(F)F)c3)nnc2s1)C1CCCC1 | 2.42 | > 29.8
COC(=O)[C@]12CC[C@@H](C)[C@H](C)[C@@H]1C1=CC[C@@H]3[C@@]4(C)C[C@@H](O)[C@H](O)[C@@](C)(CO)[C@@H]4[C@H](O)C[C@@]3(C)[C@]1(C)CC2 | 20.3 | 42.7
COCCn1cc(-c2nc(-c3cc4cccnc4[nH]3)cs2)c2cc(OC)ccc21 | 2.2 | 9.36
NCCNCCNCCN | > 100 | > 100
